# Read-outs that look alike come from different tables or passages of the source.
# Key:
# [1] = Acute dermal toxicity test (OECD 402) (Example G); format: in vivo; conditions: 3.2 mM in a topical formulation
# Method: Compound 10 was tested at 3.2 mM in a topical formulation in a standard acute dermal toxicity test to determine if any clinical or histological toxicity for the compound could be detected.
# The acute toxicity protocol was based on OECD Guidelines for the testing of chemicals/Section 4—Health Effects Test Number 402: Acute Dermal Toxicity.
# [2] = tested on: normal human dermal fibroblasts (NHDF); experiment: Toxicity against human skin cells, MTT-assay (Example D); format: cell-based; conditions: 0.01-10 μM, 5 min, 1 h and 4 h incubation, then 24 h in the dark
# Method: NHDF were incubated with different concentrations of Compound 10 for 5 min, 1 h and 4 h (0 μM, 0.01 μM, 0.1 μM, 1.0 μM, 10 μM). Cells were then incubated for 24 h in the dark. Toxicity was tested by standard MTT-assay. Cell viability was normalised to one, which means, the values of control cells were normalised to one. Grey dotted line: 5 min incubation; black dotted: 1 h incubation; black line: 4 h incubation; (n=3, mean±SD).
# (§1) Test compounds were screened for toxicity against cultured human skin cells using normal human epidermal keratinoctes (NHEK) and normal human dermal fibroblasts (NHDF), purchased from CellSystems Biotechnologie GmbH, Germany.
# (§2) The NHEK and NHDF cells were used between passages 3 and 10. The cells were seeded with 7.5 and/or 15×10^4 cells/well (microtitre plate) and were allowed to attach overnight in an incubator (37° C., 5% CO2). After incubation with different concentrations of the selected photosensitisers for various times, the cells were incubated for 24 hours in the dark.
# (§3) Toxicity was tested by standard MTT-assay (Mossman et al., 1983 J. Immunological Methods 65: 55-63). MTT is an indicator of metabolically active cells. Dependent on enzyme activity in mitochondria a colour reaction can be visualised, which can be measured by ELISA reader (540 nm). […]
# [3] = tested on: normal human epidermal keratinocytes (NHEK); experiment: as above; format: cell-based; conditions: 0.01-10 μM, 5 min, 1 h and 4 h incubation, then 24 h in the dark
# Method: NHEK were incubated with different concentrations of Compound 10 for 5 min, 1 h and 4 h (0 μM, 0.01 μM, 0.1 μM, 1.0 μM, 10 μM). Cells were then incubated for 24 h in the dark. Toxicity was tested by standard MTT-assay. Cell viability was normalised to one, which means, the values of control cells were normalised to one. Red dotted line: 5 min incubation; black dotted: 1 h incubation; blue dotted: 4 h incubation only; (n=3, mean±SD).
# as §1, §2, §3
# [4] = tested on: Staphylococcus aureus BAA-44, a multi-drug resistant Methicillin Resistant Staphylococcus aureus (MRSA) strain; experiment: MIC and MBC of Compound 10 in the absence of light (Example B); format: cell-based
# Excerpt: The minimum inhibitory concentration (MIC) for an antimicrobial agent against a specific microorganism is defined as the minimum concentration of an antibacterial agent where no apparent visible growth of the organism is observed (FDA definition of Minimum Inhibitory Concentration). MIC's are typically determined using concentrations derived traditionally from serial twofold dilutions (National Committee for Clinical Laboratory Standards (NCCLS) Handbook M7-A5: “Methods for Dilution Antimicrobial Susceptibility Tests for Bacteria that Grow Aerobically; Approved Standard—5th Edition” Volume 20 Number 2. January 2000). The MIC for Compound 10 in the absence of light was investigated, using a protocol based on the MIC protocol produced by the NCCLS (National Committee for Clinical Laboratory Standards (NCCLS) Handbook M7-A5, supra).
# Staphylococcus aureus BAA-44, a multi-drug resistant Methicillin Resistant Staphylococcus aureus (MRSA) strain obtained from the ATCC catalogue, was used in this study. The following concentrations of Compound 10 were investigated: 0.764; 0.382: 0.191; 0.0955; 0.0478; 0.0239, 0.0119, 0.00597, 0.00298, 0.00149, 0.00075 & 0.00037 μg/mL. Stock solutions were made up in distilled water and serial dilutions undertaken of this to produce the required concentrations immediately prior to use.
# At least 3 to 5 well-isolated colonies of the same morphological type were selected from an agar plate culture and the growth transferred to a tube containing 100 mL of Isosensitest Broth and the broth culture is incubated at 37° C. overnight. The culture was then be diluted to a final density of 10^4 cells/mL with fresh Isosensitest Broth and incubated with shaking at 37° C. until the cells entered exponential growth.
# 0.09 mL of the adjusted inoculum was transferred into each of 24 wells of a polystyrene 96 well microtiter plate. A control well of bacteria alone in the presence of growth medium alone was included (as a positive control).
# 0.09 mL of the Compound 10 stock solutions from the dilution series were pipetted into the relevant well for the microtiter plates and incubated in the dark at 37° C. and the plates examined after 24 hours incubation to determine the turbidity in each well.
# [5] = tested on: Staphylococcus aureus (methicillin resistant); experiment: MIC (IsoSensitest broth) and MBC (subculture on blood agar), reference strains and clinical isolates (Example C); format: cell-based
# Method: (§4) The Minimum Inhibitory Concentrations (MIC's) for Compound 10, over a range of reference strains and clinical isolates, were determined using IsoSensitest® broth and Minimum Bactericidal concentrations (MBC's) determined by subculture onto Columbia blood agar.
# (§5) • 1. A 5 mg/ml stock solution of Compound 10 was made up in water • 2. A series of dilutions were undertaken to produce a range of concentrations between 32-0.001 mg/L • 3. The test microorganisms were grown up overnight in IsoSensitest® broth • 4. The cultures were then diluted with fresh broth to a final concentration of 10^4 organisms/ml and placed on a shaker for 90 minutes at 37° C. • 5. 90 μl of the broth culture containing the microorganisms were transferred to each of 12 wells in a row in a microtitre tray and repeated in a control tray—four organisms per tray. • 6. 90 μL of the appropriate Compound 10 dilution was then added to each well containing organisms to give a final dilution series from 16 mg/L to 0.0005 mg/L • 7. The solutions were mixed well and incubated in the dark for 24 hours • 8. […] The MBC values were recorded after overnight incubation of the subcultures. • 10. Controls of uninoculated broth and broth plus inoculum were undertaken for each organism in each tray Results
# Enterococcus faecalis = experiment: MIC and MBC, reference strains and clinical isolates (Example C); format: cell-based
# Method: as §4, §5
# [6] = tested on: Staphylococcus aureus (methicillin sensitive); experiment: as above; format: cell-based
# Method: as §4, §5
# Enterococcus faecium = experiment: as above; format: cell-based
# Method: as §4, §5
# [7] = tested on: Staphylococcus epidermidis (methicillin resistant); experiment: as above; format: cell-based; conditions: for MIC: Staphylococcus epidermidis, dark 24 hours
# Method: as §4, §5
# [8] = tested on: Staphylococcus epidermidis (methicillin sensitive); experiment: as above; format: cell-based; conditions: 37453, clinical isolate
# Method: as §4, §5
# Escherichia coli = conditions: visible light after incubation; Valduga et al., 1999; cited from earlier work
structure (smiles),measurement,setting,value
"C[N+](C)(C)CCCOc1ccc(-c2c3nc(cc4ccc([nH]4)c(-c4ccc(OCCC[N+](C)(C)C)cc4)c4nc(cc5ccc2[nH]5)C=C4)C=C3)cc1 [Compound 10, 5,15-bis-[4-(3-Trimethylammonio-propyloxy)-phenyl]-porphyrin dichloride]",histological toxicology of major organs,[1],No histological toxicology of any major organ (including the skin) was observed
same,acute toxic effect,[1]; dermal,does not result in any acute toxic effect
same,clinical toxicology,"[1]; clinical, macroscopic and microscopic observation",no clinical toxicology was observed
same,innate toxicity (MTT cell viability),[2],does not demonstrate an innate toxicity
same,innate toxicity (MTT cell viability),[3],does not demonstrate an innate toxicity
same,MIC,"[4]; Series 2, dark",0.0955 µg/mL
same,MIC,"[4]; Staphylococcus aureus, Series 1, dark, read-out: MIC",0.0955 µg/mL
same,MBC,"[4]; Staphylococcus aureus, absence of light",0.382 µg/mL
same,MIC,"[4]; Staphylococcus aureus, absence of light, 24 hours incubation at 37° C., read-out: MIC",0.0955 µg/mL
same,MIC,"[5]; 24 h, EMRSA-16, clinical isolate, dark 24 hours",0.5 µg/mL
same,MIC,"[5]; ATCCBAA44, 24 h, ATCC BAA-44 Experiment 1, dark 24 hours",0.5 µg/mL
same,MIC,"[5]; ATCCBAA44, 24 h, ATCC BAA-44 Experiment 2, dark 24 hours",0.5 µg/mL
same,MIC,"[5]; ATCCBAA44, 24 h, ATCC BAA-44 Experiment 3, dark 24 hours",2 µg/mL
same,MIC,"[5]; ATCCBAA44, 24 h, ATCC BAA-44 Experiment 4, dark 24 hours",0.5 µg/mL
same,MIC,"[5]; ATCCBAA44, 24 h, ATCC BAA-44 Experiment 5, dark 24 hours",0.5 µg/mL
same,MIC,"[5]; ATCCBAA44, 24 h, ATCC BAA-44 Experiment 6, dark 24 hours",0.5 µg/mL
same,MBC,"[5]; ATCCBAA44, ATCC BAA-44 Experiment 1",0.5 µg/mL
same,MBC,"[5]; ATCCBAA44, ATCC BAA-44 Experiment 2",1 µg/mL
same,MBC,"[5]; ATCCBAA44, ATCC BAA-44 Experiment 3",2 µg/mL
same,MBC,"[5]; ATCCBAA44, ATCC BAA-44 Experiment 4",1 µg/mL
same,MBC,"[5]; ATCCBAA44, ATCC BAA-44 Experiment 5",> 1 µg/mL
same,MBC,"[5]; ATCCBAA44, ATCC BAA-44 Experiment 6",1 µg/mL
same,MBC,"[5]; EMRSA-15, clinical isolate",1 µg/mL
same,MBC,"[5]; EMRSA-16, clinical isolate",0.5 µg/mL
same,MIC,"[5]; NCTC11939, 24 h, NCTC 11939 (EMRSA-1), dark 24 hours",0.5 µg/mL
same,MBC,"[5]; NCTC11939, NCTC 11939 (EMRSA-1)",0.5 µg/mL
same,MBC,"Enterococcus faecalis; ATCC29212, ATCC 29212",> 1 µg/mL
same,MBC,"Enterococcus faecalis; E3, clinical isolate",1 µg/mL
same,MIC,"Enterococcus faecalis; E3, clinical isolate, dark 24 hours",0.5 µg/mL
same,MBC,"Enterococcus faecalis; E4, clinical isolate",0.5 µg/mL
same,MBC,"Enterococcus faecalis; E10, clinical isolate",1 µg/mL
same,MBC,"Enterococcus faecalis; E37, clinical isolate",1 µg/mL
same,MBC,"[6]; ATCC25923, ATCC 25923",1 µg/mL
same,MIC,"[6]; ATCC25923, ATCC 25923, dark 24 hours",0.5 µg/mL
same,MBC,"[6]; NCTC6571, NCTC 6571",0.5 µg/mL
same,MIC,"[6]; NCTC6571, NCTC 6571, dark 24 hours",0.5 µg/mL
same,MBC,"Enterococcus faecium; E1, clinical isolate",1 µg/mL
same,MIC,"Enterococcus faecium; E1, clinical isolate, dark 24 hours",0.5 µg/mL
same,MBC,"Enterococcus faecium; E5, clinical isolate",1 µg/mL
same,MBC,"Enterococcus faecium; E19, clinical isolate",0.5 µg/mL
same,MBC,"Enterococcus faecium; E44, clinical isolate",0.5 µg/mL
same,MBC,"Enterococcus faecium; NCTC12204, NCTC 12204",1 µg/mL
same,MBC,"[7]; Staphylococcus epidermidis, 33659, clinical isolate",1 µg/mL
same,MBC,"[7]; Staphylococcus epidermidis, 33759, clinical isolate",1 µg/mL
same,MBC,"[7]; Staphylococcus epidermidis, 36572, clinical isolate",0.25 µg/mL
same,MBC,"[7]; Staphylococcus epidermidis, 38808, clinical isolate",0.5 µg/mL
same,MIC,"[7]; 24 h, 33659, clinical isolate",0.5 µg/mL
same,MIC,"[7]; 24 h, 33759, clinical isolate",0.5 µg/mL
same,MIC,"[7]; 24 h, 36572, clinical isolate",0.25 µg/mL
same,MIC,"[7]; 24 h, 38808, clinical isolate",0.5 µg/mL
same,MBC,[8],0.5 µg/mL
same,MIC,[8]; dark 24 hours,0.5 µg/mL
"C[n+]1ccc(-c2c3nc(c(-c4cc[n+](C)cc4)c4ccc([nH]4)c(-c4cc[n+](C)cc4)c4nc(c(-c5cc[n+](C)cc5)c5ccc2[nH]5)C=C4)C=C3)cc1 [Compound T4MPyP, 5,10,15,20-tetrakis-(4-N-methylpyridyl)-porphine]",inactivation of Escherichia coli,Escherichia coli,efficiently inactivated
